Series [1] in a line: In vivo pharmacokinetic analysis after oral administration to jugular vein-cannulated rats. Conditions: fenofibrate 145 mg/70 kg, plasma fenofibric acid. How it is done: The study was performed on jugular vein-cannulated rats weighing from 200 to 250 gm (n=4). […] Blood samples were collected at various time intervals over a 48 hour period after administration. The samples were collected into heparinized tubes through the jugular vein cannulation, centrifuged at 5000 rpm for 5 minutes. Each 50 μl plasma sample was treated with 10 μl of 50% methanol and 10 μl of an internal standard (Indomethacin), and then mixed by vortexing for 30 seconds. To that mixture, 200 μl of acetonitrile was added, followed by one minute of vortexing, centrifugation at 14,000 rpm for five minutes. […] Indomethacin was used as an internal standard for the LCMS analyis. Standard non-compartmental pharmacokinetic parameters were calculated. Briefly, noncompartmental pharmacokinetic analysis is dependent on estimation of total drug exposure. Total drug exposure is most often estimated by area under the curve (AUC) using the trapezoidal rule (numerical integration) method. Due to the dependence on the length of ‘x’ in the trapezoidal rule, the area estimation is dependent on the blood/plasma sampling schedule. That is, the closer time points are, the closer the trapezoids reflect the actual shape of the concentration-time curve.

A short description of series [2]: In vitro dissolution, USP Type II apparatus, simulated gastric fluid pH 1.2 without enzymes. Type of series: physicochemical. Conditions: itraconazole 100 mg, 900 ml simulated gastric fluid pH 1.2, 100 rpm, 37°C. Here is the method: The dissolution profile of pure itraconazole was compared to the dissolution profile itraconazole from the free-flowing powder formulation that was made by the process described in Example 3. The amount of free flowing powder formulation used in the dissolution studies was equivalent to amount of the formulation containing 100 mg of itraconazole. The amount of pure itraconazole used as a control in the studies was also 100 mg. […] The analysis was performed using a USP Type II dissolution apparatus with the paddle speed and temperature maintained at 100 rpm and 37±0.5° C. Three ml aliquots were removed at 10, 20, 30, 45 and 60 minute intervals. Subsequently, the amount of itraconazole in each of the aliquots was determined by using an HP Agilent® 1100 series HPLC system (Agilent Technologies, Inc., Santa Clara, Calif.). The mobile phase solution used in the HPLC system consisted of 65% acetonitrile and 35% 10 mM potassium dihydrogen phosphate. The solution was pumped through a Phenomenex® Luna 5 μm C-18 (dimension: 150 mm×4.6 mm) column (Phenomenex Corp., Torrance Calif.) at a flow rate of 1.3 ml/min. Itraconazole was detected at a wavelength of 263 nm. […] Subsequently, the amount of itraconazole in each of the aliquots was determined by using an HP Agilent® 1100 series HPLC system (Agilent Technologies, Inc., Santa Clara, Calif.). […] Itraconazole was detected at a wavelength of 263 nm. […]

Each structure is given as a SMILES string.

As a reminder, the Cmax is the highest concentration seen after dosing. For `CCC(C)n1ncn(-c2ccc(N3CCN(c4ccc(OCC5COC(Cn6cncn6)(c6ccc(Cl)cc6Cl)O5)cc4)CC3)cc2)c1=O` (centres unmarked) [pure drug, itraconazole], in series [1], the AUMC0-t is 436.7 µg·h/mL, the CL is reported as 0.07 L/h, the Cmax was determined as 7200 ng/mL and the “MRT (mean residence time)” value was 9.15 h. In series [1], this compound returned a t1/2 of 7.18 h and a tmax of 2.5 h. The “AUC0-t (AUC0-48)” value in series [1] (over 48 hours) is 51 µg·h/mL. For the same compound, the “drug release in 10 min” value in series [2] was “less than 1%”.

The record behind these values is US9808426B2, “Ternary mixture formulations” (priority 2011, dated 2017).
